Patent US20240025863A1, “SOS1 PROTEIN DEGRADERS, PHARMACEUTICAL COMPOSITIONS THEREOF, AND THEIR THERAPEUTIC APPLICATIONS” (BioTheryX, Inc., priority 2020, published 2024)

Tests used:
Assay type in all cases: cell-based
AsPC-1 cells (G12D) = assay: Cell viability assay (CellTiter-Glo), AsPC-1 cells; settings: Homo sapiens, ASPC1, 72 h, 3 days incubation, CellTiter-Glo luminescence, read-out: Inhibition of Cancerous Cells IC50 AsPC-1 (G12D)
Procedure: H358, H23, SW48, and AsPC-1 cells were cultured in RPMI 1640 media supplemented with 10% fetal bovine serum, streptomycin, and penicillin. Lovo and SW480 cells were cultured in DMEM media supplemented with 10% fetal bovine serum, streptomycin, and penicillin. The cell lines were plated in their respective medium supplemented with 2.5% fetal bovine serum, streptomycin, and penicillin. All cell lines were plated in white walled 96-well plates at 2,000 cells/well or 384-well plates at 500 cells/well, except Lovo, which were plated at 4,000 or 1,000 cells/well, respectively. The cells were incubated in DMSO (control) or a compound for 3 days at 37° C. under 5% CO2. A CELLTITER-GLO® reagent (100 μL) was then added to each well. After a 10 min incubation with shaking, luminescence was measured using an ENVISION® multimode plate reader.

SW480 cells (G12V) = assay: Cell viability assay (CellTiter-Glo), SW480 cells; settings: Homo sapiens, 72 h; SW480 cells, 3 days incubation, CellTiter-Glo luminescence; read-out: Inhibition of Cancerous Cells IC50 SW480 (G12V)
Method in brief: (§1)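 Viability is measured by CellTiter-Glo luminescence following a 3-day compound incubation at 37 °C in medium with 2.5% FBS.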

SW48 cells (wt) = assay: Cell viability assay (CellTiter-Glo), SW48 cells; settings: Homo sapiens, 72 h; SW48 cells, 3 days incubation, CellTiter-Glo luminescence; read-out: Inhibition of Cancerous Cells IC50 SW48 (wt)
Method in brief: as §1

H358 cells (G12C) = assay: Cell viability assay (CellTiter-Glo), H358 cells; settings: Homo sapiens, NCI-H358, 72 h; H358 cells, 3 days incubation, CellTiter-Glo luminescence; read-out: Inhibition of Cancerous Cells IC50 H358 (G12C)
Method in brief: as §1

Lovo cells (G13D) = assay: Cell viability assay (CellTiter-Glo), Lovo cells; settings: Homo sapiens, 72 h; Lovo cells, 3 days incubation, CellTiter-Glo luminescence; read-out: Inhibition of Cancerous Cells IC50 Lovo (G13D)
Method in brief: as §1

| SMILES | IC50 (AsPC-1 cells (G12D)) | IC50 (SW480 cells (G12V)) | IC50 (SW48 cells (wt)) | IC50 (H358 cells (G12C)) | IC50 (Lovo cells (G13D)) |
| --- | --- | --- | --- | --- | --- |
| COc1cc2c(N[C@H](C)c3cccc(Br)c3)nc(C)nc2cc1OCCCCN1CCN(C(=O)COc2cc3c(cc2F)C(=O)N(C2CCC(=O)NC2=O)C3)CC1 (stereo partly drawn) [Compound A29, 3-(5-(2-(4-(4-((4-(((R)-1-(3-Bromophenyl)ethyl)amino)-6-methoxy-2-methyl-quinazolin-7-yl)oxy)butyl)piperazin-1-yl)-2-oxoethoxy)-6-fluoro-1-oxoisoindolin-2-yl)-piperidine-2,6-dione] | > 10000 nM | 5700 nM | 890 nM | 6800 nM | 730 nM |
| COc1cc2c(N[C@H](C)c3cccc(Br)c3)nc(C)nc2cc1OCCCCN1CCN(C(=O)CNc2cc3c(cc2F)C(=O)N(C2CCC(=O)NC2=O)C3)CC1 (stereo partly drawn) [Compound A30, 3-(5-((2-(4-(4-((4-(((R)-1-(3-Bromophenyl)ethyl)amino)-6-methoxy-2-methyl-quinazolin-7-yl)oxy)butyl)piperazin-1-yl)-2-oxoethyl)amino)-6-fluoro-1-oxoisoindolin-2-yl)-piperidine-2,6-dione] | 7800 nM | 3900 nM | 640 nM | 4200 nM | 40 nM |
| COc1cc2c(N[C@H](C)c3cccc(Br)c3)nc(C)nc2cc1OCCCCCN1CCN(C(=O)CNc2cc3c(cc2F)C(=O)N(C2CCC(=O)NC2=O)C3)CC1 (stereo partly drawn) [Compound A32, 3-(5-((2-(4-(5-((4-(((R)-1-(3-Bromophenyl)ethyl)amino)-6-methoxy-2-methyl-quinazolin-7-yl)oxy)pentyl)piperazin-1-yl)-2-oxoethyl)amino)-6-fluoro-1-oxoisoindolin-2-yl)-piperidine-2,6-dione] | > 10000 nM | 4400 nM | 470 nM | > 10000 nM | 60 nM |
| COc1cc2c(N[C@H](C)c3cccc(Br)c3)nc(C)nc2cc1OCCCN1CCC2(CC1)CCN(c1cc3c(cc1F)C(=O)N(C1CCC(=O)NC1=O)C3)CC2 (stereo partly drawn) [Compound A44, 3-(5-(9-(3-((4-(((R)-1-(3-Bromophenyl)ethyl)amino)-6-methoxy-2-methyl-quinazolin-7-yl)oxy)propyl)-3,9-diazaspiro[5.5]undecan-3-yl)-6-fluoro-1-oxoisoindolin-2-yl)piperidine-2,6-dione] | 980 nM | 440 nM | 610 nM | 1200 nM | 530 nM |
| COc1cc2c(N[C@H](C)c3cccc(Br)c3)nc(C)nc2cc1OCCCCCCCCCNc1cccc2nc(C)n(C3CCC(=O)NC3=O)c(=O)c12 (stereo partly drawn) [Compound A45, 3-(5-((9-((4-(((R)-1-(3-Bromophenyl)ethyl)amino)-6-methoxy-2-methyl-quinazolin-7-yl)oxy)nonyl)amino)-2-methyl-4-oxoquinazolin-3(4H)-yl)piperidine-2,6-dione] | 5200 nM | 900 nM | 2000 nM | 2300 nM | 1200 nM |
| COc1cc2c(N[C@H](C)c3cccc(Br)c3)nc(C)nc2cc1OCCCCCCC(=O)N1CCC(c2cc(F)cc3c2CN(C2CCC(=O)NC2=O)C3=O)CC1 (stereo partly drawn) [Compound A59, 3-(4-(1-(7-((4-(((R)-1-(3-Bromophenyl)ethyl)amino)-6-methoxy-2-methyl-quinazolin-7-yl)oxy)heptanoyl)piperidin-4-yl)-6-fluoro-1-oxoisoindolin-2-yl)piperidine-2,6-dione] | > 10000 nM | 4700 nM | 5300 nM | > 10000 nM | 4900 nM |
| COc1cc2c(N[C@H](C)c3cccc(Br)c3)nc(C)nc2cc1OCCCCCCC(=O)N1CCC(c2cc3c(cc2F)C(=O)N(C2CCC(=O)NC2=O)C3)CC1 (stereo partly drawn) [Compound A60, 3-(5-(1-(7-((4-(((R)-1-(3-Bromophenyl)ethyl)amino)-6-methoxy-2-methyl-quinazolin-7-yl)oxy)heptanoyl)piperidin-4-yl)-6-fluoro-1-oxoisoindolin-2-yl)piperidine-2,6-dione] | 8400 nM | 4000 nM | 3800 nM | > 10000 nM | 4300 nM |
| COc1cc2c(N[C@H](C)c3cccc(Br)c3)nc(C)nc2cc1OCCCCCCCCC(=O)N1CCC(c2cc(F)cc3c2CN(C2CCC(=O)NC2=O)C3=O)CC1 (stereo partly drawn) [Compound A61, 3-(4-(1-(9-((4-(((R)-1-(3-Bromophenyl)ethyl)amino)-6-methoxy-2-methyl-quinazolin-7-yl)oxy)nonanoyl)piperidin-4-yl)-6-fluoro-1-oxoisoindolin-2-yl)piperidine-2,6-dione] | > 10000 nM | 5200 nM | 5900 nM | > 10000 nM | 6600 nM |
| COc1cc2c(N[C@H](C)c3cccc(Br)c3)nc(C)nc2cc1OCCCCCC(=O)N(C)Cc1scc2c1CN(C1CCC(=O)NC1=O)C2=O (stereo partly drawn) [Compound A63, 6-((4-(((R)-1-(3-Bromophenyl)ethyl)amino)-6-methoxy-2-methylquinazolin-7-yl)oxy)-N-((5-(2,6-dioxopiperidin-3-yl)-4-oxo-5,6-dihydro-4H-thieno[3,4-c]pyrrol-1-yl)methyl)-N-methylhexanamide] | 3500 nM | 650 nM | 20 nM | 130 nM | < 14 nM |

More lines, now with the values ahead:

| IC50 (AsPC-1 cells (G12D)) | IC50 (SW480 cells (G12V)) | IC50 (SW48 cells (wt)) | IC50 (H358 cells (G12C)) | IC50 (Lovo cells (G13D)) | SMILES |
| --- | --- | --- | --- | --- | --- |
| 1100 nM | 500 nM | 440 nM | 1200 nM | 550 nM | COc1cc2c(N[C@H](C)c3cc(N)cc(C(F)(F)F)c3)nc(C)nc2cc1OCCCCCCCN1CCC(c2cc3c(cc2F)C(=O)N(C2CCC(=O)NC2=O)C3)CC1 (stereo partly drawn) [Compound A28, 3-(5-(1-(7-((4-(((R)-1-(3-Amino-5-(trifluoromethyl)phenyl)ethyl)amino)-6-methoxy-2-methylquinazolin-7-yl)oxy)heptyl)piperidin-4-yl)-6-fluoro-1-oxoisoindolin-2-yl)-piperidine-2,6-dione] |
| 1400 nM | 480 nM | 1000 nM | 890 nM | 520 nM | COc1cc2c(N[C@H](C)c3cccc(Br)c3)nc(C)nc2cc1OCCCCCCN1CCN(CCCc2cc3c(cc2F)C(=O)N(C2CCC(=O)NC2=O)C3)CC1 (stereo partly drawn) [Compound A42, 3-(5-(3-(4-(6-((4-(((R)-1-(3-Bromophenyl)ethyl)amino)-6-methoxy-2-methyl-quinazolin-7-yl)oxy)hexyl)piperazin-1-yl)propyl)-6-fluoro-1-oxoisoindolin-2-yl)piperidine-2,6-dione] |
| 830 nM | 440 nM | 620 nM | 1300 nM | 340 nM | COc1cc2c(N[C@H](C)c3cccc(Br)c3)nc(C)nc2cc1OCCCCCCN1CCN(CC#Cc2cc3c(cc2F)C(=O)N(C2CCC(=O)NC2=O)C3)CC1 (stereo partly drawn) [Compound A43, 3-(5-(3-(4-(6-((4-(((R)-1-(3-Bromophenyl)ethyl)amino)-6-methoxy-2-methyl-quinazolin-7-yl)oxy)hexyl)piperazin-1-yl)prop-1-yn-1-yl)-6-fluoro-1-oxoisoindolin-2-yl)-piperidine-2,6-dione] |
| > 10000 nM | 720 nM | 2700 nM | > 10000 nM | 990 nM | COc1cc2c(N[C@H](C)c3cccc(Br)c3)nc(C)nc2cc1OCCCCCCCCCCCNc1cccc2nc(C)n(C3CCC(=O)NC3=O)c(=O)c12 (stereo partly drawn) [Compound A46, 3-(5-((11-((4-(((R)-1-(3-Bromophenyl)ethyl)amino)-6-methoxy-2-methyl-quinazolin-7-yl)oxy)undecyl)amino)-2-methyl-4-oxoquinazolin-3(4H)-yl)piperidine-2,6-dione] |
| 3700 nM | 740 nM | 1400 nM | 3000 nM | 910 nM | COc1cc2c(N[C@H](C)c3cccc(Br)c3)nc(C)nc2cc1OCCCCCCCNc1cccc2nc(C)n(C3CCC(=O)NC3=O)c(=O)c12 (stereo partly drawn) [Compound A47, 3-(5-((7-((4-(((R)-1-(3-Bromophenyl)ethyl)amino)-6-methoxy-2-methyl-quinazolin-7-yl)oxy)heptyl)amino)-2-methyl-4-oxoquinazolin-3(4H)-yl)piperidine-2,6-dione] |
| > 10000 nM | 1300 nM | 2400 nM | > 10000 nM | 4000 nM | COc1cc2c(N[C@H](C)c3cccc(Br)c3)nc(C)nc2cc1OCCCCCCCCCCNc1cccc2c1CN(C1CCC(=O)NC1=O)C2=O (stereo partly drawn) [Compound A62, 3-(4-((10-((4-(((R)-1-(3-Bromophenyl)ethyl)amino)-6-methoxy-2-methyl-quinazolin-7-yl)oxy)decyl)amino)-1-oxoisoindolin-2-yl)piperidine-2,6-dione] |
